Results: patent publication US10053725B2, “In situ interaction determination” (President and Fellows of Harvard College, priority 2013, dated 2018)
Where no end group is shown, it is not given here.

Tests used:
[1] = target: T1, streptavidin (SA) (Streptomyces avidinii, UniProt P22629); experiment: Antibody-mediated ISID with DNA-αSA and streptavidin (qPCR, mock-library enrichment); assay type: binding
Protocol: (§1) In cases where recombinant SA or CAII was added to HeLa lysate at 0.01% wt, the protein content of the HeLa cell lysate was first estimated using the Modified Lowry Assay Kit (Thermo Scientific). HeLa cell lysate replaced water in the primer extension reaction mixture, and was added in volumes of 5.7-8.5 μL, with a maximum weight of 60 μg total protein added.

[2] = target: T2, carbonic anhydrase II (CAII) (Homo sapiens, UniProt P00918, S2A); experiment: Antibody-mediated ISID with DNA-αCAII and CAII in HeLa lysate; assay type: binding; conditions: T4 DNA polymerase; mock library DNA-GLCBS/DNA-desthiobiotin; 0.01% CAII in HeLa lysate
T2 construct: made in house; host or cells: E. coli BL21(DE3), pACA plasmid
Protocol: as §1

[3] = target: T3, CAII-His6 (Homo sapiens, UniProt P00918); experiment: ISID with DNA-αHis and His6-tagged CAII; assay type: binding
T3 construct: expressed in transfected cells; host or cells: HEK-293T (lysate)

[4] = target: T4, SNAP-CAII or CAII-SNAP (Homo sapiens, UniProt P00918, S2A); experiment: ISID in 293T cell lysate expressing SNAP-tagged CAII; assay type: binding; conditions: 293T lysate expressing SNAP-CAII or CAII-SNAP; mixtures with DNA-desthiobiotin
T4 construct: expressed in transfected cells; host or cells: HEK-293T (lysate)

[5] = target: T5, SNAP-CA (Homo sapiens, UniProt P00918); experiment: Model library×library ISID with SNAP-tagged targets: CAII; assay type: binding; conditions: 262 DNA-linked ligands × 259 DNA-linked targets; counts DNA-BG sample / DNA alone sample
T5 construct: expressed in transfected cells; host or cells: HEK-293T (lysate)

[6] = target: carbonic anhydrase II (CAII) (Homo sapiens, UniProt P00918); conditions: read-out: CAII:GLCBS Kd; cited from earlier work
[7] = target: T1, streptavidin (SA); conditions: read-out: SA-iminobiotin Kd; cited from earlier work
[8] = target: T6, His6-Bcl-xL (Homo sapiens, UniProt Q07817); experiment: ISID with DNA-αHis and His6-tagged Bcl-xL; assay type: binding
T6 construct: His6-Bcl-xL (truncated C-terminus, amino acids 1 to 212); expressed in transfected cells; host or cells: HEK-293T (lysate)

[9] = target: T7, SNAP-Bcl-xL or Bcl-xL-SNAP (Homo sapiens, UniProt Q07817); experiment: ISID in 293T cell lysate expressing SNAP-tagged Bcl-xL; assay type: binding; conditions: mixtures of DNA-Bak/DNA-BakL78A/DNA-biotin
T7 construct: His6-Bcl-xL (truncated C-terminus, amino acids 1 to 212); expressed in transfected cells; host or cells: HEK-293T (lysate)

[10] = target: Bcl-xL (Homo sapiens, UniProt Q07817); conditions: cited from earlier work
[11] = target: T8, His6-Bcl-xL (truncated C-terminus, amino acids 1 to 212) (UniProt Q07817 1-212); experiment: ISID with DNA-αHis in lysate of 293T cells expressing His6-Bcl-xL, mock library, restriction digest and PAGE
T8 construct: range 1-212

[12] = target: T9, SNAP-Bcl-xL (UniProt Q07817-1 1-212, SNAP-tag covalently labelled with O6-benzylguanine-linked DNA (DNA-BG)); experiment: model library x library ISID, pooled 293T lysates expressing SNAP-target fusions; sequence counts with DNA-BG divided by counts with DNA alone
T9 construct: also called N-terminally SNAP-tagged Bcl-xL; not shown: SNAP-tag from the pSNAPf vector (New England Biolabs)

[13] = T4 DNA polymerase, 8-nt complementary region, mock library with DNA-GLCBS, SA 0.01% wt in HeLa lysate

T1 sequence (P22629 25-183, species assumed): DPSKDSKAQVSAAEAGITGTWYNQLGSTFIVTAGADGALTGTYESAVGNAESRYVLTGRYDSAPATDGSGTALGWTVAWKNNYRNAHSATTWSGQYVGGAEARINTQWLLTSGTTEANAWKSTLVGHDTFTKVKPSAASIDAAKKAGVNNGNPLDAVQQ
T6 sequence (Q07817 3-212): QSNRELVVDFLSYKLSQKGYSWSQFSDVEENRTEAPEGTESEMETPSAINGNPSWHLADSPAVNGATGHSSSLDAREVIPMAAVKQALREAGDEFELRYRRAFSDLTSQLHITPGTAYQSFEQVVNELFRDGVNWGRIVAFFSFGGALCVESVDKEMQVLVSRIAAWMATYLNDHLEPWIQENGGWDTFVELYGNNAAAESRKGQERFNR
T9 sequence (Q07817 1-212): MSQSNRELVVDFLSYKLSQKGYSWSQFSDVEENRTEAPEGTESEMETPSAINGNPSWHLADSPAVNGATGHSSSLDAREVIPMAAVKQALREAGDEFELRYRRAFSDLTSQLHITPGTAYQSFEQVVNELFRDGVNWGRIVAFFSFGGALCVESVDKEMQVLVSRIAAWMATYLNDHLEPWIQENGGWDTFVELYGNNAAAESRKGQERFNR
T8 sequence (Q07817 other isoform, or with tags, fused parts or gaps): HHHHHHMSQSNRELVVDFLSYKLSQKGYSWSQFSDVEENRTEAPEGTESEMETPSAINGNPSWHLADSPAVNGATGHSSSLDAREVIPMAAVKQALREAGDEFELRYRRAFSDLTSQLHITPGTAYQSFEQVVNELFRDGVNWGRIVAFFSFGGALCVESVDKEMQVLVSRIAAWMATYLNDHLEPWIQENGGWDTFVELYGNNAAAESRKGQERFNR
T7 sequence (Q07817 1-212): as the sequence (Q07817 1-212) above
Bcl-xL, sequence (Q07817 whole entry, species assumed, the tested form may be a part): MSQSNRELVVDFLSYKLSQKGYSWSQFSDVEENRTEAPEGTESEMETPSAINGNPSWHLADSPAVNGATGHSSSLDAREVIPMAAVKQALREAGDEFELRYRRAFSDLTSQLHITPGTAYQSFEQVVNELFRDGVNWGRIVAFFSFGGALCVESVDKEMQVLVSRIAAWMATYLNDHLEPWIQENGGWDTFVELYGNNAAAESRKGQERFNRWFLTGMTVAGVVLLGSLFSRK

## O=C(O)CCCC[C@@H]1SC[C@@H]2NC(=O)N[C@@H]21 [biotin]
[1]; Klenow exo−, mixtures DNA-biotin/DNA-GLCBS, SA 0.01% wt in HeLa cell lysate
  enrichment of sequence: ~10 fold
[1]; [13]
  enrichment of sequence: ~1,000 fold
[1]; T4 DNA polymerase/8-nt vs Klenow exo−/6-nt complementary region
  improvement in enrichment: 100 fold

## Gly-Leu-CBS [GLCBS]
[2]
  enrichment of sequence: 10 fold
[3]; 293T cell lysate expressing CAII-His6, undiluted, mock library
  enrichment of sequence: ~10 fold
[3]; transfected lysate diluted 1:10 into untransfected 293T lysate
  enrichment of sequence: ~100 fold
[3]; transfected lysate diluted 1:100 into untransfected lysate, approximating 3 nM CAII-His6
  enrichment of sequence: ~10 fold
[4]
  enrichment of sequence: ~100 fold
[5]
  enrichment factor: 178.3
[6]
  Kd: 0.04 µM

## C[C@@H]1NC(=O)N[C@@H]1CCCCCC(=O)O [desthiobiotin]
[1]; DNA-αSA, 0.01% SA in HeLa lysate, qPCR
  ΔCT: 4.7
[1]; [13]
  enrichment of sequence: ~1000 fold

## N=C1N[C@H]2[C@H](CS[C@H]2CCCCC(=O)O)N1 [iminobiotin]
[7]
  Kd: 13 µM

## DNA-Bad: DNA oligonucleotide linked to Bad BH3 peptide
[8]; 293T cell lysate expressing His6-BclxL, vs DNA-GLCBS or DNA-biotin
  ΔCT: 8
[8]; recombinant His6-Bcl-xL
  ΔCT: 3 cycles

## BakL78A: BakL78A (72-87) peptide, a weakly binding mutant of the Bak peptide (GQVGRQAAIIGDDINR; not fully specified)
[9]
  enrichment of sequence: no enrichment
[10]
  Kd: 270 µM

B1: Bad BH3 peptide (103-127) (peptide, UniProt Q92934 103-127, looked up)
peptide: NLWAAQRYGRELRRMSDEFVDSFKK
modifications: also: conjugated to 3'-thiol DNA via SM(PEG)2 crosslinker, attachment site not given here
notes: range 103-127; Used as a peptide-DNA conjugate in ISID; also called DNA-Bad; 3h-Bad
[11]
  enrichment: ~100 fold
[12]
  enrichment factor: 238

B2: BakL78A (72-87) peptide (peptide, UniProt Q16611 72-87, looked up)
peptide: GQVGRQAAIIGDDINR
modifications: also: conjugated to 3'-thiol-modified DNA via SM(PEG)2 crosslinker, site not given here
notes: range 72-87; also called DNA-BakL78A; 3i-BakL78A
[12]
  enrichment factor: 3.9
